How the values were obtained:
[1] = Persistence in plasma study, PBS buffer incubation; format: physicochemical; details: for Peak Area Ratio (Analyte/IS): PBS Buffer (pH 7.4), 37° C.; for % Remaining after 24-hr Incubation at 37° C.: PBS buffer
[2] = Persistence in plasma (incubation at 37° C., LC-MS/MS); format: in vitro ADME, human; details: for Peak Area Ratio (Analyte/IS): Human Plasma
Description: Test compounds and control (procaine) were incubated at a concentration of 10 μM with human plasma. […]
After quenching by acetonitrile, the plates were capped, vortexed, and centrifuged at 3000 rpm for 10 minutes. The supernatant was injected into LC-MS/MS.

[3] = target: CYP3A4 liver enzyme (Homo sapiens, UniProt P08684); details: cited from earlier work
CYP3A4 liver enzyme, sequence (P08684 whole entry): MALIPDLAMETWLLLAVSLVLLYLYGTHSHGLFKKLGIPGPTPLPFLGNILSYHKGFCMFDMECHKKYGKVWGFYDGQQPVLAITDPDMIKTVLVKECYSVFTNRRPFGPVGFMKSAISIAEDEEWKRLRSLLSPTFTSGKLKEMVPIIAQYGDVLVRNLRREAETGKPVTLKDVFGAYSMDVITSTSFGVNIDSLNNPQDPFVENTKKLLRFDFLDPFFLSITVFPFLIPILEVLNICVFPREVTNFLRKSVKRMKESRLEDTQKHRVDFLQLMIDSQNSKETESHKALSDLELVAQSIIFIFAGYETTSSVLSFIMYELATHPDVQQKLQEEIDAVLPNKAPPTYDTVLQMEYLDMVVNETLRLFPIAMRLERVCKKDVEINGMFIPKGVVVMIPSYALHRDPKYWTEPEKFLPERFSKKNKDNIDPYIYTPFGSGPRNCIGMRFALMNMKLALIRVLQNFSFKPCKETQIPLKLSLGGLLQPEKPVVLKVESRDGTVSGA

[4] = oral drug, poor absorption; cited from earlier work
[5] = depending on fat content of the meal; cited from earlier work
[6] = product insert; cited from earlier work

SMILES	Peak Area Ratio (Analyte/IS) ([1]; Replicate 1)	Peak Area Ratio (Analyte/IS) ([1]; Replicate 2)	% Remaining after 24-hr Incubation at 37° C. ([1]; Average) [%]	% Remaining after 24-hr Incubation at 37° C. ([1]; Replicate 1) [%]	% Remaining after 24-hr Incubation at 37° C. ([1]; Replicate 2) [%]	Peak Area Ratio (Analyte/IS) ([2]; 0 hr, Replicate 1)	Peak Area Ratio (Analyte/IS) ([2]; 0 hr, Replicate 2)	Peak Area Ratio (Analyte/IS) ([2]; 24 hr, 37° C., Replicate 1)	Peak Area Ratio (Analyte/IS) ([2]; 24 hr, 37° C., Replicate 2)	% Remaining after 24-hr Incubation at 37° C. ([2]; human, plasma, 24 h, 10 μM) [%]	Substrate of CYP3A4 [3]	Administered drug excreted [4] [%]	Food-effect [5]	Solubility in water [6]
CCN(CC)CCOC(=O)c1ccc(N)cc1 [Procaine]	0.0916	0.357	51	20.65	80.5	0.443	0.444	0.0	0.0	0.0				
CC(=O)O[C@H]1CC[C@@]2(C)C(=CC[C@@H]3[C@@H]2CC[C@]2(C)C(c4cccnc4)=CC[C@@H]32)C1 [abiraterone acetate]											substrate	77	five- to ten-fold	practically insoluble

Source: patent publication US9937259B2, “Abiraterone derivatives and non-covalent complexes with albumin” (Zhuhai Beihai Biotech Co., Ltd., priority 2014, dated 2018)
